{"source": "patent US20030130200A1", "about": "“Small peptides and methods for treatment of asthma and inflammation” (Hisatek, LLC, priority 1997, published 2003)", "key": {"[1]": {"test_system": "type II collagen arthritis", "experiment": "Induced type II collagen arthritis mouse model", "format": "in vivo, mouse (DBA/1 male)", "details": "HK-X TC or footpad, 0.4 or 4 mg/kg for 20 days; x-ray and histology", "excerpt": "A mouse model is used to evaluate the effect of the compounds of the present invention on the histological, radiographic and clinical appearance of induced type II collagen arthritis. Mice: DBA/1(2) male mice weighing 25 gms (Jackson Laboratories, Bar Harbor, Me. or B&K Universal, Kent Wash.) are used for this work. This strain of mouse is susceptible to CIA by the injection of heterologous type II collagen. Bovine Collagen (BC), Complete Freund's Adjuvant (CFA) and Incomplete Freund's Adjuvant (ICFA) can be obtained from Sigma Chemical. Antigen for immunization is processed in 0.1 M acetic acid and formulated with CFA or ICFA. […] The degree of cellularity and areas of inflammation are quantified by using digitization of histological photomicrographs and applying standard area and point counting techniques as described above. […] The average area of soft tissue (pannus) of the joint is determined by analysis of computer digitized radiographs, along with changes in density of the adjacent hard tissues by comparison with internal standards included with each radiograph. […] The significance of the differences in density and area for control and experimental mice is assessed using paired T-tests at each time point. […] Swelling of hind paws is also quantitated by measuring the thickness of the ankle from the medial to the lateral malledus with a constant tension caliper. […]"}, "mast cells": {"test_system": "mast cells", "experiment": "Rat skin model for inhibition of mast cell degranulation induced by Compound 48/80 (area of capillary permeability/bluing)", "format": "in vivo, rat (male Sprague-Dawley)", "excerpt": "The Rat Skin Model for Determination of Inhibition of Mast Cell Degranulation\nAllergy induced asthma results from exposure of substances (allergens) to which an organism has become hypersensitized. Exposure to allergen results in degranulation of mast cells in the lung, releasing leukotrienes and histamines. […] Respiratory symptoms resulting from such an exposure range from mild (itching and sneezing) to potentially fatal (asthma), including in extreme chronic cases death by anaphylaxis.\nIn this model, the blood plasma of the experimental rat is labeled with the dye trypan blue. This soluble dye is carried in the bloodstream as a passive marker of plasma itself, and is excluded from live cells. Intact blood vessels including the capillary system, retain this dye under normal circumstances. A compound, which induces degranulation of mast cells (resulting in leukotriene and histamine release), is injected into the skin to simulate allergen-induced degranulation. In these experiments, Compound 48/80 was used for this purpose. In the events following leukotriene and histamine release, capillary permeability is increased, and plasma, dyed blue, leaks from capillaries and dyes the skin surrounding the injection site blue. The area of bluing is a measure of the amount of Compound 48/80 injected.\nA compound can be tested for “anti-leukotriene” and/or “anti-histamine” activity by mixing it with Compound 48/80 prior to injection.\nThe rat skin model was undertaken and validated. Various peptides were tested at a predetermined dose for anti-leukotriene and/or anti-histamine activity. The dose selected allowed a general comparison to f-Met-Leu-Phe, which was standard compound for comparison.\nA “dose response” titration was performed for some compounds and compared with the standard compound. Observing serial decreases in the size areas of capillary permeability using serially smaller doses of the putative inhibitory compound validates the inhibition of leukotriene and/or histamine release observed in the initial predetermined dose test.\nReagents were obtained from Sigma or Aldrich, with the exception of ketamine, a veterinary anaesthetic that was obtained from various veterinary suppliers. The rats used were male Sprague-Dawley breed, 220-240 g at time of purchase from B&K International.\nFor the rat skin reaction, rats were anaesthetized with 0.25 ml 10 mg/ml ketamine. 1.0 ml trypan blue in saline (sterile filtered) was administered in a tail vein, and the back of the rat was shaved. Four intradermal injection sites per rat were used for test and control injections.\nCompound 48/80 was prepared as a 1.5 mg/ml stock solution in saline. […] Serial dilutions in saline to working levels were prepared just prior to injection of each rat.\nPeptides were prepared as a 23 mM stock solution in DMSO, and stored at −20° C. between experiments. At the time of use, the frozen stock solutions were thawed, and appropriate aliquots added to dilutions of Compound 48/80, along with appropriate amounts of DMSO, to result in the ratio of 5 μl DMSO to 0.1 ml aqueous Compound 48/80.\nFor injections, 0.1 ml Compound […], +/− test compounds were injected intradermally into anaesthetized, dyed, and shaved rats. Following a 15 minute incubation, the rats were sacrificed by cervical dislocation and the back skin was evulsed and placed on a light box. An image of the backlit skin was digitized using a CCD video capture camera and compatible hardware/software. The digitized image was analyzed using a scientific graphics analysis software package, and the areas of capillary permeability (bluing) were integrated and digital values were obtained for further analysis.\nA dose response curve was generated using Compound 48/80 at various doses from ca. 0.01 μg through ca 15 μg. […] A dose of 0.15 μg of Compound 48/80 was selected for conducting further tests.\nA dose response curve was prepared for the standard compound, f-Met-Leu-Phe, using the selected dose of 0.15 μg Compound 48/80. […]"}}, "note": "Where no end group is shown, it is not given here. The star is where a group is joined. For = O=C*"}
{"substance": "f-Met-Leu-Phe-Phe (For-MLFF) [Example 9]", "values": [{"measurement": "Degree of arthritis", "setting": "[1]", "value": "reduce the degree of arthritis"}, {"measurement": "Inhibition of degranulation induced by Compound 48/80, dose response curve", "setting": "mast cells; doses of 0 to about 230 nM peptide, 0.15 μg Compound 48/80 (FIG. 2, FIG. 3)", "value": "Surprisingly remarkable inhibition of degranulation induced by Compound 48/80 was clearly shown"}, {"measurement": "% Degranulation", "setting": "mast cells; percent mast cell degranulation produced by 48/80, 100 nanomoles peptide, 0.15 μg Compound 48/80", "value": "1-3%"}]}
